Reference: patent US20110224208A1, “NOVEL INHIBITORS OF FLAVIVIRUS REPLICATION” (KATHOLIEKE UNIVERSITEIT LEUVEN, K.U. LEUVEN R&D, priority 2008, published 2011)
Converted amounts (≈) assume the structure as drawn.

Legend:
[1] = tested on: HCV replicon I389luc-ubi-neo/NS3-3'/5.1; test: Anti-HCV replicon assay (luciferase activity) in Huh-5-2 cells; assay type: cell-based, Hepatitis C virus; conditions: Hepatitis C virus, Huh-5-2, 72 h, concentration required to inhibit luciferase activity in the replicon system by 50%
Protocol: (§1) Cells were seeded at a density of 7000 cells per well in 96 well View Plate™ (Packard) in medium containing the same components as described above, except for G418. Cells were allowed to adhere and proliferate for 24 hr. At that time, culture medium was removed and serial dilutions of the test compounds were added in culture medium lacking G418. Interferon alfa 2a (500 IU) was included as a positive control. Plates were further incubated at 37° C. and 5% CO2 for 72 hours. Replication of the HCV replicon in Huh-5 cells results in luciferase activity in the cells. Luciferase activity is measured by adding 50 μl of 1×Glo-lysis buffer (Promega) for 15 minutes followed by 50 ul of the Steady-Glo Luciferase assay reagent (Promega). Luciferase activity is measured with a luminometer and the signal in each individual well is expressed as a percentage of the untreated cultures. […] Instead the density of the culture is measured by means of the MTS method (Promega).

[2] = Proliferation of exponentially growing Huh-5-2 cells (MTS method); conditions: human, CC50, concentration required to inhibit the proliferation of exponentially growing Huh-5-2 cells by 50%; Table 2
Protocol: as §1

Compound	IC50 [1]	CC50 at 72 h [2]
COCCN1C(=O)c2ccccc2C(C(=O)Nc2ccc(C#N)cc2)C1c1cccs1 (stereo not drawn) [C20, N-(4-cyanophenyl)-2-(2-methoxyethyl)-1-oxo-3-(thiophen-2-yl)-1,2,3,4-tetrahydroisoquinoline-4-carboxamide]	0.4 µg/mL (≈ 0.927 µM)	42 µg/mL (≈ 97.3 µM)
COCCN1C(=O)c2ccccc2C(C(=O)Nc2cccc(OC)c2)C1c1cccnc1 (stereo not drawn) [C53, 2-(2-Methoxyethyl)-N-(3-methoxyphenyl)-1-oxo-3-(pyridin-3-yl)-1,2,3,4-tetrahydroisoquinoline-4-carboxamide]	52.9 µg/mL (≈ 123 µM)	80.8 µg/mL (≈ 187 µM)
COCCN1C(=O)c2ccccc2C(C(=O)Nc2ccc3ncsc3c2)C1c1cccs1 (stereo not drawn) [C170, N-(benzo[d]thiazol-6-yl)-2-(2-methoxyethyl)-1-oxo-3-(thiophen-2-yl)-1,2,3,4-tetrahydroisoquinoline-4-carboxamide]	0.12 µg/mL (≈ 0.259 µM)	37.7 µg/mL (≈ 81.2 µM)
COCCN1C(=O)c2ccccc2C(C(=O)Nc2cccc(-n3cccn3)c2)C1c1cccs1 (stereo not drawn) [C172, N-(3-(1H-pyrazol-1-yl)phenyl)-2-(2-methoxyethyl)-1-oxo-3-(thiophen-2-yl)-1,2,3,4-tetrahydroisoquinoline-4-carboxamide]	0.09 µg/mL (≈ 0.19 µM)	14.5 µg/mL (≈ 30.6 µM)
COCCN1C(=O)c2ccccc2C(C(=O)Nc2cccc(OC)c2)C1C#Cc1ccccc1 (stereo not drawn) [C119, 2-(2-methoxyethyl)-N-(3-methoxyphenyl)-1-oxo-3-(phenylethynyl)-1,2,3,4-tetrahydroisoquinoline-4-carboxamide]	4.63 µg/mL (≈ 10.2 µM)	94 µg/mL (≈ 207 µM)
COc1cccc(NC(=O)C2c3ccccc3C(=O)N(C3CCCCC3)C2c2cccs2)c1 (stereo not drawn) [C25, 2-Cyclohexyl-N-(3-methoxyphenyl)-1-oxo-3-(thiophen-2-yl)-1,2,3,4-tetrahydroisoquinoline-4-carboxamide]	0.98 µg/mL (≈ 2.13 µM)	5.28 µg/mL (≈ 11.5 µM)
COCCN1C(=O)c2ccccc2C(C(=O)Nc2ccc(OC3CCOCC3)cc2)C1c1cccs1 (stereo not drawn) [C218, 2-(2-methoxyethyl)-1-oxo-N-(4-(tetrahydro-2H-pyran-4-yloxy)phenyl)-3-(thiophen-2-yl)-1,2,3,4-tetrahydroisoquinoline-4-carboxamide]	0.1 µg/mL (≈ 0.197 µM)	83.8 µg/mL (≈ 165 µM)
COCCN1C(=O)c2ccccc2C(C(=O)Nc2onc(C)c2C#N)C1c1cccs1 (stereo not drawn) [C155, N-(4-cyano-3-methylisoxazol-5-yl)-2-(2-methoxyethyl)-1-oxo-3-(thiophen-2-yl)-1,2,3,4-tetrahydroisoquinoline-4-carboxamide]	5.65 µg/mL (≈ 12.9 µM)	76.4 µg/mL (≈ 175 µM)
COCCn1c(-c2cccs2)c(C(=O)Nc2cccc(OC)c2)c2ccccc2c1=O [C32, 2-(2-methoxyethyl)-N-(3-methoxyphenyl)-1-oxo-3-(thiophen-2-yl)-1,2-dihydroisoquinoline-4-carboxamide]	37.3 µg/mL (≈ 85.8 µM)	73.7 µg/mL (≈ 170 µM)
COCCN1C(=O)c2ccccc2C(C(=O)Nc2ccc(F)c(F)c2)C1c1cccs1 (stereo not drawn) [C88, N-(3,4-difluorophenyl)-2-(2-methoxyethyl)-1-oxo-3-(thiophen-2-yl)-1,2,3,4-tetrahydroisoquinoline-4-carboxamide]	2.7 µg/mL (≈ 6.1 µM)	60 µg/mL (≈ 136 µM)
COCCN1C(=O)c2ccccc2C(C(=O)Nc2nc3ccc(F)cc3s2)C1c1cccs1 (stereo not drawn) [C199, N-(6-fluorobenzo[d]thiazol-2-yl)-2-(2-methoxyethyl)-1-oxo-3-(thiophen-2-yl)-1,2,3,4-tetrahydroisoquinoline-4-carboxamide]	0.12 µg/mL (≈ 0.249 µM)	5.97 µg/mL (≈ 12.4 µM)
COCCN1C(=O)c2c(ccc(OC)c2F)C(C(=O)Nc2ccc(-n3cccc3)cc2)C1c1cccs1 (stereo not drawn) [C150, N-(4-(1H-pyrrol-1-yl)phenyl)-8-fluoro-7-methoxy-2-(2-methoxyethyl)-1-oxo-3-(thiophen-2-yl)-1,2,3,4-tetrahydroisoquinoline-4-carboxamide]	0.08 µg/mL (≈ 0.154 µM)	> 125 µg/mL
CCOc1cccc(NC(=O)C2c3ccccc3C(=O)N(CCOC)C2c2cccs2)c1 (stereo not drawn) [C59, N-(3-ethoxyphenyl)-2-(2-methoxyethyl)-1-oxo-3-(thiophen-2-yl)-1,2,3,4-tetrahydroisoquinoline-4-carboxamide]	0.3 µg/mL (≈ 0.666 µM)	88.1 µg/mL (≈ 196 µM)
COCCN1C(=O)c2ccccc2C(C(=O)Nc2ccc(-c3ccn(C)n3)cc2)C1c1cccs1 (stereo not drawn) [C203, 2-(2-methoxyethyl)-N-(4-(1-methyl-1H-pyrazol-3-yl)phenyl)-1-oxo-3-(thiophen-2-yl)-1,2,3,4-tetrahydroisoquinoline-4-carboxamide]	0.019 µg/mL (≈ 0.039 µM)	9.4 µg/mL (≈ 19.3 µM)
COCCN1C(=O)c2ccccc2C(C(=O)Nc2ccc(Cn3cncn3)cc2)C1c1cccs1 (stereo not drawn) [C217, N-(4-((1H-1,2,4-triazol-1-yl)methyl)phenyl)-2-(2-methoxyethyl)-1-oxo-3-(thiophen-2-yl)-1,2,3,4-tetrahydroisoquinoline-4-carboxamide]	0.76 µg/mL (≈ 1.56 µM)	83.7 µg/mL (≈ 172 µM)
COCCCN1C(=O)c2ccccc2C(C(=O)Nc2cccc(OC)c2)C1c1cccs1 (stereo not drawn) [C13, N-(3-methoxyphenyl)-2-(3-methoxypropyl)-1-oxo-3-(thiophen-2-yl)-1,2,3,4-tetrahydroisoquinoline-4-carboxamide]	2.11 µg/mL (≈ 4.68 µM)	33.3 µg/mL (≈ 73.9 µM)
COCCN1C(=O)c2ccccc2C(C(=O)Nc2ccc(C)cc2)C1c1cccs1 (stereo not drawn) [C86, 2-(2-methoxyethyl)-1-oxo-3-(thiophen-2-yl)-N-p-tolyl-1,2,3,4-tetrahydroisoquinoline-4-carboxamide]	0.25 µg/mL (≈ 0.594 µM)	75 µg/mL (≈ 178 µM)
COc1cccc(NC(=O)C2c3ccccc3C(=O)N(CCO)C2c2cccs2)c1 (stereo not drawn) [C23, 2-(2-Hydroxyethyl)-N-(3-methoxyphenyl)-1-oxo-3-(thiophen-2-yl)-1,2,3,4-tetrahydroisoquinoline-4-carboxamide]	43 µg/mL (≈ 102 µM)	118 µg/mL (≈ 280 µM)
COCCN1C(=O)c2ccccc2C(C(=O)Nc2ccc3c(ccn3C)c2)C1c1cccs1 (stereo not drawn) [C123, 2-(2-methoxyethyl)-N-(1-methyl-1H-indol-5-yl)-1-oxo-3-(thiophen-2-yl)-1,2,3,4-tetrahydroisoquinoline-4-carboxamide]	0.25 µg/mL (≈ 0.544 µM)	87.9 µg/mL (≈ 191 µM)
COCCN1C(=O)c2ccccc2C(C(=O)Nc2ccc(-c3nnc(C)o3)cc2)C1c1cccs1 (stereo not drawn) [C205, 2-(2-methoxyethyl)-N-(4-(5-methyl-1,3,4-oxadiazol-2-yl)phenyl)-1-oxo-3-(thiophen-2-yl)-1,2,3,4-tetrahydroisoquinoline-4-carboxamide]	0.034 µg/mL (≈ 0.0696 µM)	38.8 µg/mL (≈ 79.5 µM)
COCCN1C(=O)c2ccccc2C(C(=O)Nc2cccc(OC)c2)C1c1ccc[nH]1 (stereo not drawn) [C29, 2-(2-Methoxyethyl)-N-(3-methoxyphenyl)-1-oxo-3-(1H-pyrrol-2-yl)-1,2,3,4-tetrahydroisoquinoline-4-carboxamide]	14.8 µg/mL (≈ 35.2 µM)	54.5 µg/mL (≈ 130 µM)
COCCN1C(=O)c2ccccc2C(C(=O)Nc2ccc(C(=O)N(C)C)cc2)C1c1cccs1 (stereo not drawn) [C139, N-(4-(dimethylcarbamoyl)phenyl)-2-(2-methoxyethyl)-1-oxo-3-(thiophen-2-yl)-1,2,3,4-tetrahydroisoquinoline-4-carboxamide]	2.74 µg/mL (≈ 5.74 µM)	75.3 µg/mL (≈ 158 µM)
COCCN1C(=O)c2ccccc2C(C(=O)Nc2nc(-c3ccccc3)ns2)C1c1cccs1 (stereo not drawn) [C194, 2-(2-methoxyethyl)-1-oxo-N-(3-phenyl-1,2,4-thiadiazol-5-yl)-3-(thiophen-2-yl)-1,2,3,4-tetrahydroisoquinoline-4-carboxamide]	0.019 µg/mL (≈ 0.0387 µM)	–
